Test results from patent US8399683B2 (TetraLogic Pharmaceuticals, priority 2008, dated 2013).

What was measured:
XIAP BIR-3 = biological target: T1, XIAP BIR-3 (Homo sapiens, UniProt P98170); test: Fluorescence polarization binding affinity to XIAP BIR-3 (competition with AbuRPF-K(5-Fam)-NH2); conditions: 5 nM labeled peptide, 40 nM BIR3, 15 min at RT, pH 7.5; reported as ranges
T1 construct: 40 nM of the respective IAP BIR3
Method: (§1) The binding affinities of the compounds are reported as a KD value (μM). Briefly, various concentrations of test peptides were mixed with 5 nM of the fluorescently labeled peptide (i.e., a mutated N-terminal Smac peptide—AbuRPF-K(5-Fam)-NH2) and 40 nM of the respective IAP BIR3 for 15 min at RT in […] of 0.1M Potassium Phosphate buffer, pH 7.5 containing […] bovine g-globulin. Following incubation, the polarization values (mP) were measured on a Victor2V (available from PerkinElmer Life Sciences) using a 485 nm excitation filter and a 520 nm emission filter. The reported KD values are supplied as ranges (A=<0.1 μM, B=0.1 μM to 1 μM, C>1 μM to 10 μM, D=>10 μM).

cIAP-1 BIR-3 = cIAP-1 BIR-3 (Homo sapiens, UniProt Q13490); test: Fluorescence polarization binding affinity to cIAP-1 BIR-3 (competition with AbuRPF-K(5-Fam)-NH2); conditions: 5 nM labeled peptide, 40 nM BIR3, 15 min at RT, pH 7.5; reported as ranges; read-out: KD (c-IAP-1 BIR3)
Chain of cIAP-1 BIR-3 (Q13490 266-352 limits assumed): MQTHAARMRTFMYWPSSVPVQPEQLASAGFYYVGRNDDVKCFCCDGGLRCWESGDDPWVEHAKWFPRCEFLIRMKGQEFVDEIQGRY
Method: as §1

SK-OV-3 cells = test: Growth inhibition of ovarian cancer cell line SK-OV-3 (MTT assay, cell survival); assay type: cell-based; conditions: Homo sapiens, drug concentration that results in 50% cell survival, 72 hrs incubation, reported as ranges
Method: Compounds of the invention also were tested for their ability to inhibit the growth of an ovarian cancer cell line, SK-OV-3. A known assay previously used for measuring cell growth (as described in Hansen, M. B., Nielsen, S. E., and Berg, K. (1989) J. Immunol. Methods 119, 203-210 and incorporated herein by reference in its entirety) was used. Briefly, SK-OV-3 cells are seeded in 96-well plates in McCoy's medium containing 10% fetal bovine serum albumin (5,000 per well) and incubated overnight at 37° C. The next day, test compounds are added at various concentrations (0.003-10 μM) and the plates are incubated at 37° C. for an additional 72 hrs. This incubation time was considered to be optimal for measuring inhibitory effects of the different compounds tested. 50 microliters of 5 mg/mL MTT reagent is added to each well and the plates are incubated at 37° C. for another three (3) hours. At the end of the three (3) hour incubation period, 50 microliters of DMSO is added to each well to dissolve cells and the optical density (OD) of the wells is measured with a microplate reader (Victor^2 1420, Wallac, Finland) at 535 nm. Cell survival (CS) was calculated using the following equation: CS=(OD treated well/mean OD control wells)×100%.
The CC50 (reported in the following tables), is defined as the drug concentration that results in 50% cell survival (CS), and is derived by calculating the point where the dose-response curve crosses the 50% CS point using GraphPad Prism. The reported CC50 values are supplied as ranges (A=<0.1 μM, B=0.1 μM to 1 μM, C=>1 μM to 10 μM, D=>10 μM).

T1 sequence (P98170 241-356 limits assumed): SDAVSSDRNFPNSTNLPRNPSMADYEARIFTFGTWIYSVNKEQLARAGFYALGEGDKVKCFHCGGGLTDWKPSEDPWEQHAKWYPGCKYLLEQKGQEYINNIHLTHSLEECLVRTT

SMILES	Kd (XIAP BIR-3) [nM]	Kd (cIAP-1 BIR-3) [nM]	CC50 (SK-OV-3 cells) [nM]
CN[C@@H](C)C(=O)N[C@H](C(=O)N1CC[C@@H]2[C@H]1[C@@H](c1c[nH]c3cc(F)ccc13)CN2C1CCN(C)CC1)C1CCCCC1 [Example 22, N-{1-Cyclohexyl-2-[6-(6-fluoro-1H-indol-3-yl)-4-(1-methyl-piperidin-4-yl)-hexahydro-pyrrolo[3,2-b]pyrrol-1-yl]-2-oxo-ethyl}-2-methylamino-propionamide]	100 to 1000	< 100	100 to 1000
CN[C@@H](C)C(=O)N[C@@H](CO)C(=O)N1CC[C@@H]2[C@H]1[C@H](c1c[nH]c3cc(F)ccc13)CN2S(C)(=O)=O [Example 51, N-{2-[6-(6-Fluoro-1H-indol-3-yl)-4-methanesulfonyl-hexahydro-pyrrolo[3,2-b]pyrrol-1-yl]-1-hydroxymethyl-2-oxo-ethyl}-2-methylamino-propionamide]	> 10000	1000 to 10000	> 10000
CN[C@@H](C)C(=O)N[C@H](C(=O)N1CC[C@H]2NC[C@H](c3c[nH]c4cc(F)ccc34)[C@H]21)C(C)C [Example 30, N-{1-[6-(6-Fluoro-1H-indol-3-yl)-hexahydro-pyrrolo[3,2-b]pyrrole-1-carbonyl]-2-methyl-propyl}-2-methylamino-propionamide]	< 100	< 100	< 100
CC[C@H](NC(=O)[C@H](C)NC)C(=O)N1CC[C@@H]2[C@H]1[C@H](c1c[nH]c3cc(F)ccc13)CN2S(C)(=O)=O [Example 45, N-{1-[6-(6-Fluoro-1H-indol-3-yl)-4-methanesulfonyl-hexahydro-pyrrolo[3,2-b]pyrrole-1-carbonyl]-propyl}-2-methylamino-propionamide]	> 10000	1000 to 10000	> 10000
CN[C@@H](C)C(=O)N[C@H](C(=O)N1CC[C@@H]2[C@H]1[C@H](c1c[nH]c3cc(F)ccc13)CN2S(C)(=O)=O)C1CCCCC1 [Example 44]	1000 to 10000	100 to 1000	1000 to 10000
CN[C@@H](C)C(=O)N[C@H](C(=O)N1CC[C@@H]2[C@H]1[C@@H](c1c[nH]c3cc(F)ccc13)CN2c1ncccn1)C(C)(C)C [Example 79, N-{1-[6-(6-Fluoro-1H-indol-3-yl)-4-pyrimidin-2-yl-hexahydro-pyrrolo[3,2-b]pyrrole-1-carbonyl]-2,2-dimethyl-propyl}-2-methylamino-propionamide]	< 100	< 100	< 100
CN[C@@H](C)C(=O)N[C@H](C(=O)N1CC[C@@H]2[C@H]1[C@@H](c1c[nH]c3cc(F)ccc13)CN2C(=O)OCc1ccccc1)C1CCCCC1 [Example 99]	< 100	< 100	< 100

Second part, led by results:

Kd (XIAP BIR-3) [nM]	Kd (cIAP-1 BIR-3) [nM]	SMILES	CC50 (SK-OV-3 cells) [nM]
< 100	< 100	CC[C@H](NC(=O)[C@H](C)NC)C(=O)N1CC[C@@H]2[C@H]1[C@@H](c1c[nH]c3cc(F)ccc13)CN2C(C)=O [Example 60, N-{1-[4-Acetyl-6-(6-fluoro-1H-indol-3-yl)-hexahydro-pyrrolo[3,2-b]pyrrole-1-carbonyl]-propyl}-2-methylamino-propionamide]	< 100
< 100	< 100	CN[C@@H](C)C(=O)N[C@H](C(=O)N1CC[C@@H]2[C@H]1[C@@H](c1c[nH]c3cc(F)ccc13)CN2S(C)(=O)=O)C(C)(C)C [Example 50, N-{1-[6-(6-Fluoro-1H-indol-3-yl)-4-methanesulfonyl-hexahydro-pyrrolo[3,2-b]pyrrole-1-carbonyl]-2,2-dimethyl-propyl}-2-methylamino-propionamide]	< 100
< 100	< 100	CN[C@@H](C)C(=O)N[C@H](C(=O)N1CC[C@@H]2[C@H]1[C@@H](c1c[nH]c3cc(F)ccc13)CN2C(=O)C1CC1)C1CCCCC1 [Example 40, N-{1-Cyclohexyl-2-[4-cyclopropanecarbonyl-6-(6-fluoro-1H-indol-3-yl)-hexahydro-pyrrolo[3,2-b]pyrrol-1-yl]-2-oxo-ethyl}-2-methylamino-propionamide]	< 100
